From US11986540B2, “Compositions including pafolacianine for the identification of malignant lesions” (ON TARGET LABORATORIES, LLC., priority 2022, dated 2024)

Experiments:
[1] = Plasma protein binding, equilibrium dialysis, dog plasma; assay type: in vitro ADME; conditions: Beagle, read-out: mean (±SD) percentage of plasma protein bound (converted)
Description: The plasma protein binding of pafolacianine was studied in vitro in fresh human, Sprague Dawley rat, and Beagle dog plasma using equilibrium dialysis. Pafolacianine was introduced into plasma samples, in duplicate, resulting in a final concentration of 5 μM. The mean (±SD) percentage of plasma protein bound pafolacianine was 99.1±0.1%, 98.6±0.1%, and 93.7±1.5% for rat, dog and human, respectively. Pafolacianine was highly bound to plasma protein in all species examined.

[2] = tested on: panel of 55 pharmacologically-relevant receptors, ion channels and transporters; assay: In vitro ligand binding screen (ExpresSProfile; Cerep); conditions: 5 μM
Description: Pafolacianine (5 μM) was evaluated in an in vitro ligand binding screen (ExpresSProfile; Cerep 100010238), which assessed the potential for pafolacianine “off-target” binding to a broad panel of 55 pharmacologically-relevant receptors, ion channels and transporters.

[3] = Pharmacokinetics in specific populations; assay type: in vivo; conditions: age 18-89 years, weight 41.6-133.6 kg, mild to moderate renal or hepatic impairment

## CC1(C)C(=CC=C2CCCC(C=CC3=[N+](CCCCS(=O)(=O)[O-])c4ccc(S(=O)(=O)O)cc4C3(C)C)=C2Oc2ccc(CC(NC(=O)c3ccc(NCc4cnc5nc(N)[nH]c(=O)c5n4)cc3)C(=O)O)cc2)N(CCCCS(=O)(=O)O)c2ccc(S(=O)(=O)O)cc21 (stereo not drawn) [pafolacianine]
[1]
  fraction unbound at 5 μM: 0.014
[2]
  affinity to off-target proteins: no significant affinity
[3]
  differences in pharmacokinetics by age, weight, renal or hepatic impairment: No clinically significant differences
